The source of these data is US7723347B2, “Substituted phenylamino-pyrimidines” (Bayer Schering Pharma Aktiengesellschaft, priority 2004, dated 2010).

Test [1] deals with recombinant Rho kinase II (ROKα) (UniProt Q62868). The test can be described thus: Inhibition of recombinant Rho kinase II (ROKα), 33P uptake into S6 substrate peptide. The conditions noted are these: Rho-kinase-catalyzed uptake of 33P into S6 peptide, 37° C., vs solvent control. Format: biochemical. Here is the method:
(§1) The inhibition of the enzyme is investigated in an in vitro assay with recombinant Rho kinase II. The vessel-relaxing action is determined using phenylephrine-induced contractions of isolated rings of the saphenous artery of rabbits.
Inhibition of Recombinant Rho Kinase II (ROKα)
The activity of Rho kinase is determined by the uptake of ^33P phosphate into a substrate peptide. To this end, commercially available Rho kinase II (Upstate Biotechnology) is pre-incubated at 37° C. in the presence of the S6 phosphate-acceptor peptide with the test substances or a solvent control for 10 min. The kinase reaction is then started by addition of ^33P-labeled ATP. After 20 min at 37° C., the reaction is stopped by addition of H3PO4. Aliquots are pipetted onto filters and the filters are washed and then covered with scintillator. The radioactivity of the ^33P-labeled peptides bound to the filter is measured in a Micro-Beta counter. The IC50 value corresponds to the concentration of a test substance at which the Rho-kinase-catalyzed uptake of ^33P into the peptide is inhibited by 50%, compared to a solvent control.

The test system of test [2] is isolated rings of the saphenous artery of rabbits. Description: Vessel-relaxing action in vitro, phenylephrine-induced contractions of isolated saphenous artery rings. To be noted: Oryctolagus cuniculus; concentration reducing phenylephrine-induced contraction (3×10^−8 g/ml) of rabbit saphenous artery rings by 50%. Here is the method: as §1
Vessel-Relaxing Action In Vitro
Individual 3-mm-wide rings of the isolated saphenous artery of rabbits are introduced into 5 ml organ baths with Krebs-Henseleit solution (37° C., gassed with carbogen). The vessel tone is monitored isometrically and registered. Contractions are induced by addition of 3×10^−8 g of phenylephrine/ml, which is washed out again after 4 min. After a number of control cycles, the rings are pre-incubated with the substance to be examined, with the dosage being increased for each further cycle, and the subsequent contraction is compared to the intensity of the last control contraction. The concentration required to reduce the intensity of the control value by 50% (IC50) is calculated.

By IC50 is commonly meant the midpoint of a concentration-inhibition curve. Consider `Nc1nc(Nc2ccc(Cc3ccnc4[nH]ccc34)c(F)c2)cc(C(F)(F)F)n1` [Example 8, N^4-[3-Fluoro-4-(1H-pyrrolo[2,3-b]pyridin-4-ylmethyl)phenyl]-6-(trifluoromethyl)pyrimidine-2,4-diamine], for which the IC50 in test [1] worked out at 7 nM; in test [2] it was 86 nM.

In the case of `Cc1c[nH]c2nccc(Nc3ccc(Nc4cc(Cl)nc(N)n4)cc3F)c12` [Example 10, 6-Chloro-N^4-{3-fluoro-4-[(3-methyl-1H-pyrrolo[2,3-b]pyridin-4-yl)amino]phenyl}pyrimidine-2,4-diamine], the IC50 in test [1] amounted to 3 nM; in test [2], 8 nM.

Take `Cc1c[nH]c2nccc(Nc3ccc(Nc4cc(C(F)(F)F)nc(N)n4)cc3F)c12` [Example 11, N^4-{3-Fluoro-4-[(3-methyl-1H-pyrrolo[2,3-b]pyridin-4-yl)amino]phenyl}-6-(trifluoromethyl)pyrimidine-2,4-diamine]: the figures for the IC50 in test [1] and in test [2] were 4 nM and 3 nM, respectively.
